The subject of the assay is Escherichia coli isolate. The assay is described as follows: Same-sample AST, bulk: filtration, RT-ddPCR of 23S rRNA, percent extracellular (Example 1). It counts as cell-based. The note with it: 1.0 μg/mL ETP, 37° C. 60 minutes; lower bound of 95% Poisson CI of percent extracellular vs threshold (control mean + 2 SD); three replicates. Here is the method:
The inoculum was small enough that no detectable difference in the sample's optical density at 600 mm (OD600) was detectable by a spectrophotometer with a sensitivity of 0.01 absorbance units. After an incubation at 37° C., the media became turbid with an OD600 of 0.26 absorbance units after 2 hours of incubation thus providing a bacteria batch culture.
To begin the AST protocol, 10 μL of the above bacteria batch culture was added to and mixed with 15 μL of Mueller-Hinton Broth (MHB) growth media containing 1.67 μg/mL of dissolved ertapenem (ETP) antibiotic to create a test condition antibiotic exposure with a final ETP concentration of 1.0 μg/mL.
In parallel, 10 μL of the batch culture was added to and mixed with 15 μL of Mueller-Hinton Broth (MHB) growth media containing no ETP to create a control condition antibiotic exposure corresponding to the 1 μg/mL test condition. The two antibiotic exposures were incubated at 37° C. for 60 minutes.
The entire volume of each antibiotic exposure was transferred to an individual cellulose acetate filter with a 0.2 μm pore size. Fluid that passes through the filter, called the “filtrate”, was collected in a clean microcentrifuge tube. The antibiotic exposures were centrifuged at 2200 relative centrifugal force to speed the passage of the antibiotic exposure through the filter and into the collecting vessel. […]

Molecules are shown by their SMILES.

As for `C[C@@H](O)[C@H]1C(=O)N2C(C(=O)O)=C(S[C@@H]3CN[C@H](C(=O)Nc4cccc(C(=O)O)c4)C3)[C@H](C)[C@H]12` [ETP, ertapenem], the susceptibility call is “susceptible”.

The values are drawn from patent US20220282304A1, “SAME-SAMPLE ANTIBIOTIC SUSCEPTIBILITY TEST AND RELATED COMPOSITIONS, METHODS AND SYSTEMS” (CALIFORNIA INSTITUTE OF TECHNOLOGY, priority 2021, published 2022).
